# Assay results from ChEMBL document CHEMBL4765338, “Simple analogues of natural product chelerythrine: Discovery of a novel anticholinesterase 2-phenylisoquinolin-2-ium scaffold with excellent potency against acetylcholinesterase” (Eur J Med Chem, 2020).
# Tests used:
# [1] = target: Acetylcholinesterase (Homo sapiens, UniProt P22303)
# Description: Inhibition of AChE (unknown origin) preincubated for 30 mins followed by substrate addition acetylthiocholineiodide measured after 40 mins by Ellman's method
# [2] = target: Cholinesterase (Homo sapiens, UniProt P06276)
# Description: Inhibition of BuChE (unknown origin) preincubated for 30 mins followed by substrate addition acetylthiocholineiodide measured after 40 mins by Ellman's method
# [3] = tested on: N2a; test: Cytotoxicity against mouse N2a cells incubated for 48 hrs by MTT assay; type: cell-based
# [4] = Cytotoxicity against porcine fetal kidney cells incubated for 48 hrs by MTT assay; type: cell-based; settings: Sus scrofa, Fetal kidney cell
# [5] = Cytotoxicity against goat fetal fibroblast cells incubated for 48 hrs by MTT assay; type: cell-based, Fetal fibroblast cell; settings: Capra hircus
# Chain of Cholinesterase (P06276 whole entry): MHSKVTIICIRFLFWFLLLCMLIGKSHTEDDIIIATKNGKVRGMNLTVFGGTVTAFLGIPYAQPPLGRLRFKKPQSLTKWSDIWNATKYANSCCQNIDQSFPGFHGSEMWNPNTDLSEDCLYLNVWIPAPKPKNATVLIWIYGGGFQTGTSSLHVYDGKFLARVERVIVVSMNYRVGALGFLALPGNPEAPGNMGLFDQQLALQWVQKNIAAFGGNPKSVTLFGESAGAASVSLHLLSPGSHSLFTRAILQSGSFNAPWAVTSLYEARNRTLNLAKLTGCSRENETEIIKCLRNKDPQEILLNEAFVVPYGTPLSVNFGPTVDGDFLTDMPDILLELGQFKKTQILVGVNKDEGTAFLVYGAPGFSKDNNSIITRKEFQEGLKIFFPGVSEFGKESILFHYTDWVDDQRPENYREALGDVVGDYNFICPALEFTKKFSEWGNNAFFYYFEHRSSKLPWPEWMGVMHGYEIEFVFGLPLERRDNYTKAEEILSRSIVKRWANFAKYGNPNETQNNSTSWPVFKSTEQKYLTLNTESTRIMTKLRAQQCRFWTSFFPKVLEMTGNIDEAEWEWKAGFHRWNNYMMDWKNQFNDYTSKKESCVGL
# Chain of Acetylcholinesterase (P22303 whole entry): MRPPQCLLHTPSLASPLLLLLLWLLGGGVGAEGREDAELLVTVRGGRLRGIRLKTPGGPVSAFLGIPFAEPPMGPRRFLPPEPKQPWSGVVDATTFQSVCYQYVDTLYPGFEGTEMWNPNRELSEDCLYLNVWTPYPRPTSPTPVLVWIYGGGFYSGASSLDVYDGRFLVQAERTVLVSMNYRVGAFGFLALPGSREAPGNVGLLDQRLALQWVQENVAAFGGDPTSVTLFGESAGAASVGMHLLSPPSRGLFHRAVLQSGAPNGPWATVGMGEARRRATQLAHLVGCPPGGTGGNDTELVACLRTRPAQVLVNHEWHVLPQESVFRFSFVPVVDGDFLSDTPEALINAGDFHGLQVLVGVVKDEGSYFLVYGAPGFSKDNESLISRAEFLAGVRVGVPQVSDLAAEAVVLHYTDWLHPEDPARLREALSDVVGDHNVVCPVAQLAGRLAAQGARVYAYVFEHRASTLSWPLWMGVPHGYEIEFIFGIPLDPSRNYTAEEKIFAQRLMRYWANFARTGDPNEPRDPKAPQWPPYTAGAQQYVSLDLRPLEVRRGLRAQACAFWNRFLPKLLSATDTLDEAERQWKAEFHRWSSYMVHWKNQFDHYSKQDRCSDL
Compound,IC50 [1] [µM],IC50 [2] [µM],IC50 [3] [µM],IC50 [4] [µM],IC50 [5] [µM]
COc1cccc2c1C=[N+](c1ccccc1)CC2,1.62,35.4,–,–,–
COc1ccc([N+]2=Cc3c(cccc3OC)CC2)cc1,1.04,113,26.6,23.8,27.3
COc1cccc2c1C=[N+](c1ccc(Br)cc1F)CC2,1.29,69.3,–,–,–
COc1cccc2cc[n+](-c3cccc(C(F)(F)F)c3)cc12,> 10,–,–,–,–
COc1cccc2cc[n+](-c3ccc(F)cc3)cc12,0.67,143,–,–,–
COc1cccc2c1C=[N+](c1c(F)cccc1F)CC2,1.29,105,–,–,–
Brc1ccc(-[n+]2ccc3ccccc3c2)cc1,2.39,130,–,–,–
COc1cccc2c1C=[N+](c1ccccc1Br)CC2,1.5,27.2,–,–,–
COc1cccc2cc[n+](-c3ccccc3Br)cc12,5.23,89.5,–,–,–
COc1cccc2cc[n+](-c3cccc(I)c3)cc12,> 10,–,–,–,–
COc1ccc(-[n+]2ccc3cccc(OC)c3c2)cc1,0.14,3.84,> 50,> 50,> 50
COc1cccc2c1C=[N+](c1ccc(F)cc1)CC2,1.99,113,–,–,–
COc1cccc2c1C=[N+](c1ccc(C(F)(F)F)cc1)CC2,1.94,221,–,–,–
COc1cccc2cc[n+](-c3ccc(I)cc3F)cc12,1.23,89.8,–,–,–
COc1cccc2c1C=[N+](c1ccc(Cl)cc1Cl)CC2,1.04,90.5,–,–,–
COc1cccc2c1C=[N+](c1cccc(Cl)c1)CC2,> 10,–,–,–,–
COc1cccc2c1C=[N+](c1ccccc1F)CC2,2.94,75,–,–,–
COc1cccc2cc[n+](-c3ccccc3)cc12,1.42,80.3,–,–,–
COc1cccc2c1C=[N+](c1ccc(C#N)cc1)CC2,> 10,–,–,–,–
COc1cccc2cc[n+](-c3ccc(C)cc3)cc12,1.08,> 250,–,–,–
COc1cccc2c1C=[N+](c1cccc(F)c1)CC2,> 10,–,–,–,–
C[n+]1cc2c3c(ccc2c2ccc4cc5c(cc4c21)OCO5)OCO3,1.22,7.08,–,–,–

Compound,IC50 [1] [µM],IC50 [2] [µM],IC50 [3] [µM],IC50 [4] [µM],IC50 [5] [µM]
COc1cccc2cc[n+](-c3ccccc3I)cc12,2.06,36.9,–,–,–
COc1cccc2c1C=[N+](c1ccc(Br)cc1)CC2,0.28,20.7,20.3,19.2,20.6
COc1cccc2cc[n+](-c3cc(Cl)cc(Cl)c3)cc12,> 10,–,–,–,–
COc1cccc2cc[n+](-c3cccc(F)c3)cc12,9.13,> 250,–,–,–
COc1cccc2cc[n+](-c3cccc(C#N)c3)cc12,3.41,> 250,–,–,–
COc1ccc2c(c[n+](C)c3c4cc5c(cc4ccc23)OCO5)c1OC [CHELERYTHRINE],1.45,8.58,–,–,–
COc1cccc2cc[n+](-c3ccc(Br)cc3Br)cc12,0.57,131,> 50,> 50,> 50
COc1cccc2c1C=[N+](c1ccccc1C#N)CC2,> 10,–,–,–,–
COc1cccc2c1C=[N+](c1ccccc1C(F)(F)F)CC2,> 10,–,–,–,–
COc1cccc2c1C=[N+](c1ccc(Cl)cc1)CC2,0.32,62.1,–,–,–
COc1ccccc1-[n+]1ccc2cccc(OC)c2c1,> 10,–,–,–,–
Brc1ccc([N+]2=Cc3ccccc3CC2)cc1,10.5,63.7,–,–,–
COc1cccc2c1C=[N+](c1cc(Cl)cc(Cl)c1)CC2,> 10,–,–,–,–
COc1cccc2cc[n+](-c3ccc(C#N)cc3)cc12,> 10,–,–,–,–
COc1cccc2cc[n+](-c3ccccc3C(F)(F)F)cc12,> 10,–,–,–,–
COc1cccc2c1C=[N+](c1ccc(I)cc1F)CC2,1.06,128,–,–,–
COc1cccc2cc[n+](-c3ccc(Br)cc3F)cc12,0.9,196,–,–,–
COc1cccc2c1C=[N+](c1ccc(Br)cc1Br)CC2,3.72,116,4.26,6.03,6.13
COc1cccc2cc[n+](-c3ccccc3Cl)cc12,5.33,67.2,–,–,–
COc1cccc2c1C=[N+](c1ccc(C)cc1)CC2,0.53,47.1,–,–,–
COc1cccc2c1C=[N+](c1ccccc1Cl)CC2,> 10,190,–,–,–
COc1cccc2cc[n+](-c3cccc(C)c3)cc12,2.21,30.6,–,–,–

Compound,IC50 [1] [µM],IC50 [2] [µM],IC50 [3] [µM],IC50 [4] [µM],IC50 [5] [µM]
COc1cccc2cc[n+](-c3cccc(Br)c3)cc12,> 10,–,–,–,–
COc1ccccc1[N+]1=Cc2c(cccc2OC)CC1,> 10,–,–,–,–
COc1cccc2cc[n+](-c3cccc(Cl)c3)cc12,9.45,36.4,–,–,–
COc1cccc2cc[n+](-c3c(F)cccc3F)cc12,2.7,48.4,–,–,–
COc1cccc2c1C=[N+](c1cccc(Br)c1)CC2,> 10,–,–,–,–
COc1cccc2c1C=[N+](c1ccccc1C)CC2,3.07,133,–,–,–
COc1cccc2cc[n+](-c3ccc(Cl)cc3Cl)cc12,3.42,232,–,–,–
COc1cccc2cc[n+](-c3ccccc3F)cc12,2.55,80.9,–,–,–
COc1cccc2c1C=[N+](c1cccc(I)c1)CC2,> 10,–,–,–,–
COc1cccc2cc[n+](-c3ccc(C(F)(F)F)cc3)cc12,0.69,33.5,–,–,–
COc1cccc2cc[n+](-c3ccc(Br)cc3)cc12,0.19,21.6,20.8,19.8,> 50
COc1cccc([N+]2=Cc3c(cccc3OC)CC2)c1,5.23,77.3,–,–,–
COc1cccc2c1C=[N+](c1cccc(C#N)c1)CC2,5.13,110,–,–,–
COc1cccc2cc[n+](-c3ccc(I)cc3)cc12,0.72,36.1,–,–,–
COc1cccc2cc[n+](-c3ccccc3C#N)cc12,1.75,59.4,–,–,–
COc1cccc(-[n+]2ccc3cccc(OC)c3c2)c1,6.9,98.3,–,–,–
COc1cccc2cc[n+](-c3ccccc3C)cc12,2.89,243,–,–,–
COc1cccc2c1C=[N+](c1cccc(C)c1)CC2,2.89,35.9,–,–,–
COc1cccc2c1C=[N+](c1ccc(I)cc1)CC2,1.01,58.1,–,–,–
COc1cccc2c1C=[N+](c1cccc(C(F)(F)F)c1)CC2,> 10,–,–,–,–
COc1cccc2cc[n+](-c3ccc(Cl)cc3)cc12,0.17,104,–,–,–
COc1cccc2c1C=[N+](c1ccccc1I)CC2,1.79,28.9,–,–,–
